Values quoted from earlier work, collected in patent US20240382574A1, “METHODS AND COMPOSITIONS FOR ORALLY DOSING ANIMALS” (Animal Science Products, Inc., priority 2023, published 2024).

Test system: piglets
Details: previous research

Molecule	attraction of piglets
3-methylindole (skatole)	piglets are attracted to these molecules
CCCCCCCCCCCCCC(=O)O [myristic acid, tetradecanoic acid (myristic acid)]	piglets are attracted to these molecules
